Experiment [1] has as its system Clostridium perfringens. Type of experiment: in vivo, chickens. The settings on record: inferred from FIG. 3 and common knowledge.
For experiment [2], the system named is Clostridium perfringens. The settings on record: general common knowledge in the art; cited from earlier work.

For the compound `C[N+](C)(C)CC(=O)O` [betaine], the “effectiveness against an infection of C. perfringens” value in experiment [1] is recorded as “does not result in the Clostridium infection being effectively treated”. Also, the “effectiveness against a C. perfringens challenge” value in experiment [2] was “not effective”.

Source of the values: patent US7014863B2, “Additive for an animal feed” (priority 1999, dated 2006).
